pIC50: −log10 of the molar value. Activity calls are given as the source filed them. No rule for the calls is given here.
Experiments:
[1] = molecular target: Hypoxia-inducible factor 1-alpha (Homo sapiens) (UniProt Q16665); experiment: HIF-2a and HIF-1a reporter inhibition panel, dose response, selectivity assay for HIF-2a inhibitor project, cell-based, luminescence (AID 651581); details: HIF-1a
[2] = molecular target: Endothelial PAS domain-containing protein 1 (Homo sapiens) (UniProt Q99814); experiment: as above

Sequence of Hypoxia-inducible factor 1-alpha (Homo sapiens) (Q16665 whole entry, looked up, the tested form may be a part): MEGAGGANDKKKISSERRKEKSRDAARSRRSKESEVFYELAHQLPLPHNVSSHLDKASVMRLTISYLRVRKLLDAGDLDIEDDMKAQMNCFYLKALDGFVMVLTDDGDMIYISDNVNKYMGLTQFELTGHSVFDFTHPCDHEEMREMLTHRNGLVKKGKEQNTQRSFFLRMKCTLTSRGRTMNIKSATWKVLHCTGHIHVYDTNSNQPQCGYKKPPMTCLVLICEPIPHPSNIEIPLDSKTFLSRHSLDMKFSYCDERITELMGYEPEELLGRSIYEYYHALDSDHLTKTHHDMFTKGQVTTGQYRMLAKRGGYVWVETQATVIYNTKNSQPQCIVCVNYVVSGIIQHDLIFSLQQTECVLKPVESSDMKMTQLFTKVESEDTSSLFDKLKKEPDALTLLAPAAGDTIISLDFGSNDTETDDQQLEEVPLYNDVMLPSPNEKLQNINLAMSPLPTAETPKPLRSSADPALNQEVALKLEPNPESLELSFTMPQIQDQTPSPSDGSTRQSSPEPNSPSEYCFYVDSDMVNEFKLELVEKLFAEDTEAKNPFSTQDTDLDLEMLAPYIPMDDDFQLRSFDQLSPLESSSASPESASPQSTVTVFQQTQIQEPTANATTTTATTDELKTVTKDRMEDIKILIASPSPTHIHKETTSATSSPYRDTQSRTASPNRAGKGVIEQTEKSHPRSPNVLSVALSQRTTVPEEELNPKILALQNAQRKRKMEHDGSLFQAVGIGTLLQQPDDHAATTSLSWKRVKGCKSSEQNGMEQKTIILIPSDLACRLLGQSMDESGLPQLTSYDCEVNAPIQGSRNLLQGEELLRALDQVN

Row | Structure (SMILES) | pIC50 ([1]; run 1) | pIC50 ([1]; run 2) | IC50 ([2]; HIF-2a PANC, mean of runs) | pIC50 ([2]; HIF-2a PANC, run 1) | pIC50 ([2]; HIF-2a PANC, run 2) | pIC50 ([2]; HIF-2a, mean of runs) | pIC50 ([2]; HIF-2a, run 1) | pIC50 ([2]; HIF-2a, run 2) | IC50 ([1]; mean of runs) | pIC50 ([2]; HIF-2a PANC, mean of runs) | IC50 ([2]; HIF-2a, mean of runs) | pIC50 ([1]; mean of runs)
1 | Cc1ccc(NC(=O)c2cc(N3C(=O)C=CC3=O)ccc2N2CCOCC2)cc1 | 4.19 | < 4.00 | > 99 µM (inactive) | < 4.00 | < 4.00 | 5.01 | 5.02 | 5.00 | – | – | – | –
2 | CCOc1ccc(-c2cc(CCCC(=O)Nc3cc(OC)ccc3OC)no2)cc1 | 5.30 | 5.29 | – | 6.28 | 6.44 | 5.70 | 5.63 | 5.78 | inactive | 6.35 | – | –
3 | Cc1ccc(C)c(S(=O)(=O)ON2C(=O)c3ccccc3C2=O)c1 | < 4.00 | < 4.00 | > 99 µM (inactive) | < 4.00 | < 4.00 | 5.07 | 5.07 | 5.08 | – | – | – | –
4 | O=C(O)COc1ccc(-c2nccc(-c3ccccn3)n2)cc1 | 6.40 | 6.11 | – | 5.86 | 6.04 | 6.04 | 6.09 | 5.99 | inactive | 5.94 | – | –
5 | Cc1ccc(C(C)C)c(OCc2ccc(-c3nnco3)cc2)c1 | < 4.00 | < 4.00 | > 99 µM (inactive) | < 4.00 | < 4.00 | 5.77 | 5.72 | 5.83 | – | – | – | –
6 | O=C(CCCc1nc(-c2ccccc2Cl)no1)NC1CCCC1 | 5.90 | 5.74 | – | 5.97 | 6.06 | 5.98 | 6.00 | 5.96 | inactive | 6.01 | – | –
7 | CCOC(=O)c1cccc(NC(=O)/C=C/c2ccc3c(c2)OCO3)c1 | 4.59 | 4.56 | – | 4.37 | < 4.00 | – | 4.73 | 4.83 | inactive | – | inactive | –
8 | COc1cc(N2C(=O)C=CC2=O)c(OC)cc1Cl | 4.48 | 4.39 | inactive | 4.42 | 4.34 | 5.07 | 5.06 | 5.08 | – | – | – | 4.43
9 | COc1ccc(OCc2cccc(C(=O)Nc3cc(C)on3)c2)cc1 | < 4.00 | < 4.00 | – | < 4.00 | > 4.52 | – | > 4.52 | > 4.52 | – | – | < 30 µM (inactive) | –
10 | O=Cc1cn(Cc2cccc([N+](=O)[O-])c2)c2ccccc12 | < 4.00 | < 4.00 | > 99 µM (inactive) | < 4.00 | < 4.00 | 6.01 | 6.01 | 6.01 | – | – | – | –
11 | CCOc1cc(/C=N/Nc2cccc(C(=O)O)c2)ccc1OC(=O)c1ccccc1 | < 4.00 | < 4.00 | – | < 4.00 | 4.52 | 5.37 | 5.35 | 5.40 | – | – | – | –
12 | Cc1nc2cc(-c3ccccc3)nn2c(C)c1CCC(=O)N1CCN(c2ccccc2)CC1 | 5.08 | 5.10 | – | 5.85 | 5.75 | 5.98 | 6.01 | 5.95 | – | 5.80 | – | 5.09
13 | O=C(CCCc1ccccc1)Nc1cccc(C(=O)O)c1 | < 4.00 | < 4.00 | > 99 µM (inactive) | < 4.00 | < 4.00 | – | 4.77 | 4.84 | – | – | inactive | –
14 | Cc1ccc(C(=O)c2cccc(N)c2)cc1C | 5.30 | 5.52 | inactive | 5.48 | 5.19 | 6.06 | 6.07 | 6.06 | – | – | – | 5.39
15 | O=C1C=CC(=O)N1c1ccccc1N1C(=O)C=CC1=O | 4.39 | 4.46 | > 99 µM (inactive) | < 4.00 | < 4.00 | – | 4.87 | 4.88 | inactive | – | inactive | –
16 | O=C(Nc1cc(S(=O)(=O)N2CCOCC2)ccc1Cl)c1cc([N+](=O)[O-])ccc1Cl | 4.62 | 4.75 | – | < 4.00 | 4.09 | – | 4.82 | 4.86 | inactive | – | inactive | –
17 | Cc1ccc(S(=O)(=O)c2ncccc2[N+](=O)[O-])cc1 | 4.67 | 4.64 | – | 4.69 | 4.77 | 5.01 | 5.00 | 5.03 | inactive | 4.73 | – | –
18 | CC(C)c1ccc(/C=N/Nc2ccc(C(=O)O)cc2)cc1 | 4.55 | 4.66 | – | > 5.52 | > 6.00 | – | 5.10 | > 6.72 | – | > 6.00 | – | 4.61

Row | Structure (SMILES) | pIC50 ([1]; run 1) | pIC50 ([1]; run 2) | IC50 ([2]; HIF-2a PANC, mean of runs) | pIC50 ([2]; HIF-2a PANC, run 1) | pIC50 ([2]; HIF-2a PANC, run 2) | pIC50 ([2]; HIF-2a, mean of runs) | pIC50 ([2]; HIF-2a, run 1) | pIC50 ([2]; HIF-2a, run 2) | IC50 ([1]; mean of runs) | pIC50 ([2]; HIF-2a PANC, mean of runs) | IC50 ([2]; HIF-2a, mean of runs) | pIC50 ([1]; mean of runs)
19 | Cc1ccc(NC(=O)c2cc(N3C(=O)C=CC3=O)ccc2N2CCOCC2)cc1Cl | 4.22 | 4.41 | – | 4.12 | < 4.00 | 5.27 | 5.29 | 5.25 | – | – | – | 4.30
20 | Cc1csc(NC(=O)CCc2c(C)nc3cc(-c4ccc(Cl)cc4)nn3c2C)n1 | 6.31 | > 5.00 | – | > 6.72 | 6.51 | – | > 6.00 | 6.46 | – | – | – | –
21 | Cc1nnnn1/C(=C\c1ccccc1)C(=O)OCC(=O)Nc1cccc(S(=O)(=O)N(C)C)c1 | 4.87 | 4.73 | – | < 4.00 | 4.62 | 5.06 | 5.08 | 5.05 | inactive | – | – | –
22 | COC(=O)c1ccc(C(=O)OC)c(-n2c(=O)c3ccccc3c3ccccc3c2=O)c1 | 4.42 | 4.37 | > 99 µM (inactive) | < 4.00 | < 4.00 | – | 4.59 | 4.60 | inactive | – | inactive | –
23 | Cc1nn(-c2ccccc2)c(Cl)c1/C=N/Nc1ccc(Cl)c(C(=O)O)c1 | < 4.00 | < 4.00 | – | < 4.00 | < 4.00 | – | > 4.52 | < 4.00 | > 99 µM (inactive) | – | – | –
24 | Nc1ccc2oc(-c3cc(Br)ccc3Cl)nc2c1 | 4.16 | < 4.00 | – | 6.28 | 6.31 | 5.96 | 5.97 | 5.95 | – | 6.30 | – | –
25 | Cc1ccc(Oc2ccc(OCC(=O)Nc3ccncc3)cc2)cc1 | 4.83 | 4.80 | – | 5.43 | 5.47 | 5.23 | 5.25 | 5.21 | inactive | 5.44 | – | –
26 | CCOC(=O)NC(=O)COC(=O)CCCSc1nc2ccccc2s1 | 4.62 | 4.87 | – | 4.92 | 4.97 | 5.02 | 5.05 | 4.99 | inactive | 4.95 | – | –
27 | O=C1C=C(c2ccc(Cl)cc2)C(=O)N1Nc1ccccc1 | 4.64 | 4.54 | inactive | 4.52 | 4.12 | 5.25 | 5.25 | 5.25 | – | – | – | 4.59
28 | C=CS(=O)(=O)c1sc(Cl)c(N2CCOCC2)c1[N+](=O)[O-] | 4.32 | < 4.00 | – | < 4.00 | 4.81 | 5.05 | 5.02 | 5.07 | – | – | – | –
29 | CC(C)COc1ccc(C(=S)N2CCCC2)cc1 | < 4.00 | < 4.00 | – | 4.87 | 4.81 | 5.31 | 5.36 | 5.27 | – | 4.84 | – | –
30 | Cc1cc(C)c(C)c(S(=O)(=O)ON2C(=O)c3ccccc3C2=O)c1C | < 4.00 | < 4.00 | inactive | 4.29 | 4.66 | 5.06 | 5.05 | 5.07 | – | – | – | –
31 | Cc1ccoc1C(=O)Nc1ccc(CC(=O)O)cc1 | < 4.00 | < 4.00 | – | 6.05 | 6.16 | 6.43 | 6.44 | 6.42 | – | 6.10 | – | –
32 | COc1ccc(-n2nc3ccc(N)cc3n2)cc1 | 4.60 | 4.21 | – | 5.49 | 5.89 | – | 5.13 | 4.83 | – | 5.65 | inactive | 4.36
33 | COC(=O)CCCNC(=O)CCc1nnc(-c2ccc(-c3ccccc3)cc2)o1 | < 4.00 | < 4.00 | – | < 4.00 | 4.67 | 5.55 | 5.52 | 5.59 | – | – | – | –
34 | CC(=O)Nc1ccc(NC(=O)c2c([N+](=O)[O-])c(C(C)(C)C)nn2C)cc1 | 5.03 | 4.64 | – | 4.95 | 4.97 | – | 4.97 | 4.94 | inactive | 4.96 | inactive | –
35 | CN(C)S(=O)(=O)c1cccc(NC(=O)CSc2cccc3cccnc23)c1 | 4.51 | 4.42 | > 99 µM (inactive) | < 4.00 | < 4.00 | 5.27 | 5.28 | 5.25 | – | – | – | 4.46
36 | O=C(O)c1cccc(C(=O)Nc2cccc(NC(=O)C3CCCO3)c2)c1 (stereo unspecified) | < 4.00 | < 4.00 | > 99 µM (inactive) | < 4.00 | < 4.00 | – | 4.51 | 4.57 | – | – | inactive | –

— PubChem BioAssay AID651581 (Sanford-Burnham Center for Chemical Genomics, 2012)
